Entries after “also recorded” stand apart in the source; their conditions may differ. Marks after values point to notes of the source that are not given here.
Columns and labels:
[1] = Tissue endocannabinoid measurement (2-AG, AEA); type: in vivo, mouse; conditions: liver and ING WAT, DIO mice, 30 mg/kg
Procedure: Approximately 200 mg of tissue per sample were used for endocannbabinoid extraction. To each frozen tissue sample, 10 μl of ice-cold 100 mM butylated hydroxytoluene (BHT; in methanol) and 0.5 ml of 100 nM AEA-d8 (in water) were added. Tissue sample solution with BHT were immediately homogenized using TissueLyser (QIAGEN, Germantown. MD) for 3 minutes at 30 Hz, followed by two consecutive 1.25 ml of ice-cold ethyl acetate:hexane (9:1) extraction. The pooled extracts were dried to complete dryness under nitrogen gas. Dried samples were redissolved in 80% acetonitrile and subjected to LC/MS analysis. 10 μl of sample was injected onto a Kinetex C18 2.1×100 mm, 2.6 μm column (Phenomenex, Torrance, CA). Mobile phase A is 0.2% acetic acid in water and mobile phase B is 0.1% formic acid in acetonitrile. The LC gradient was a 7-minute long method at a flow rate of 0.2 ml/minute consisting of an isocratic period from 0 to 1 minute at 75% B, followed by a gradient from 75 to 100% from 1 to 4 minutes, and 100 to 75% B from 4 to 7 minutes. The analyte peak areas were quantified using the Analyst software (SCIEX, Framingham MA).

mouse FADS1 = biological target: T1, mouse FADS1 (Mus musculus, UniProt Q920L1); assay: Mouse FADS1 cell-based assay; conditions: in vitro; read-out: half-maximal inhibitory concentration (IC50) against mouse FADS1
T1 sequence (Q920L1 1-447): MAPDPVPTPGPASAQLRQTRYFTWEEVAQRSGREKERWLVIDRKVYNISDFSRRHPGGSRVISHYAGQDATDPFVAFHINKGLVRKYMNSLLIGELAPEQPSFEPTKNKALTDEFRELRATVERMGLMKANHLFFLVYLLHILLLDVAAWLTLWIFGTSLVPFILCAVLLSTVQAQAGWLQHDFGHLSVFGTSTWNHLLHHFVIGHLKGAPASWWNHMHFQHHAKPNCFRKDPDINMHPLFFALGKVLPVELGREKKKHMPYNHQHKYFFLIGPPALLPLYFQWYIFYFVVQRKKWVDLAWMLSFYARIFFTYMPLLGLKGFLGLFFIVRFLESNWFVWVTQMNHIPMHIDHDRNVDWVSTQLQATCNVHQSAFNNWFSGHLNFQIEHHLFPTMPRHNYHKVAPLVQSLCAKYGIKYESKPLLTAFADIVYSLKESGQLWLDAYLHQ
Procedure: HEK 293 cells in Dulbecco's Modified Eagle's medium (DMEM), 10% fetal bovine serum (FBS), 1× penicillin-streptomycin-glutamine (PSG) were mixed with FADS1 BacMam or FADS2 BacMam reagents at multiplicity of infection (MOI) ratio of 25 and plated in a in 96-well poly-D-lysine-coated plate. Plates were incubated in a 37° C., 5% CO2 for 24 hours. Cells were washed with DPBS and cells were incubated with […] of compound dilution in DPBS at 5% CO2, 37° C. for 20 minutes. Ten L of the substrate, ^13C5-DGLA (FADS1), or 13C-LA (FADS2) diluted in DPBS were added to the cells and incubated at 5% CO2, 37° C. for 30 minutes (FADS1) or 45 minutes (FADS2). Cells were then washed with DPBS and 50 μL of 2N NaOH were added to each well and incubated in a 65° C. oven for 1 hour for the saponification reaction. After cooling to room temperature, 22 μl of formic acid was added followed by the addition of 113 μl of acetonitrile with 1.5 μM ALA-d14 as the internal standard. Samples were then subjected to LC-MS/MS detection for the following analytes for the FADS1 reaction: ^13C5-DGLA and ^13C5-AA or the following analytes for the FADS2 reaction: ^13C18-LA, ^13C18-GLA, ^13C18-DGLA and ^13C18-AA. […]
The analyte peak areas were quantified by using the Analyst software (SCIEX, Framingham, MA). The percent of substrate to product conversion relative to untreated control were calculated (percent of control [POC]). […]

[2] = Chronic FADS1 inhibition study in DIO mice (body weight, food intake); type: in vivo, mouse; conditions: for lower body weight relative to vehicle-treated mice: 54 days
Procedure: (§1) Body weight was measured daily and used for dosing calculations. A 4-hour fasted retro-orbital blood sample was collected at baseline and day 46 and used for insulin, cholesterol, and triglyceride analysis. A 3-day average food consumption was measured on days 39-41. All animals received 0.1 ml of 2 mM ^13C5-DGLA by IP injection 23.5 hours after the last PO gavage with the different treatment to allow for 30 minutes of exposure prior to necropsy to determine the residual in vivo FADS1 activity.

[3] = Liver histology assessment (H&E, Oil-red-O); type: in vivo, mouse; conditions: WT DIO mice, 10 mg/kg, 24 days, compared to WT vehicle
[4] = Fatty acid concentration and composition of plasma lipid subfractions (GC) of Compound A-treated DIO mice; type: in vivo; conditions: DIO mouse plasma, 30 mg/kg, mean
[5] = Plasma lipid, glucose, insulin and metabolic profile measurements in DIO mice; type: in vivo, mouse; conditions: for Alanine Aminotransferase / Cholesterol / HDL-Cholesterol / Insulin / LDL-Cholesterol / Non-esterified fatty acids / Triglycerides: DIO mice plasma; for Alanine Aminotransferase / Cholesterol / HDL-Cholesterol / Insulin / LDL-Cholesterol / Non-esterified fatty acids / Triglycerides / C-reactive Protein / Glucose / Serum Amyloid A: mean ± SD
Procedure: as §1
Mice were bled consciously from the retro-orbital sinus, and blood was collected into EDTA plasma tubes. Plasma lipids were measured using the Olympus AU400e Chemistry Analyzer (Olympus America, Center Valley, PA). Plasma insulin was measured using the ALPCO mouse high range insulin ELISA (Alpco, Salem, NH). Blood glucose was measured using an AlphaTRAK blood glucometer (Zoetis, Parsippany, NJ).

[6] = DIO mice, 10 mg kg^−1, 46 or 54 days
[7] = DIO mice, 30 mg kg^−1, 46 or 54 days
[8] = DIO mice, 10 and 30 mg/kg daily oral

## COc1ccn2c(=O)c(-c3cnn(CC(F)(F)C(F)(F)F)c3)c(C(F)(F)F)nc2c1 [Compound A, 8-methoxy-3-(1-(2,2,3,3,3-pentafluoropropyl)-1H-pyrazol-4-yl)-2-(trifluoromethyl)-4H-pyrido[1,2-a]pyrimidin-4-one]
[1]
  endocannabinoid (2-AG, AEA) levels: Decreased levels of endocannabinoids
Mouse FADS1
  IC50: 4 nM
[2]; 10 mg/kg daily oral
  lower body weight relative to vehicle-treated mice: 17.9%
[2]; 30 mg/kg daily oral
  lower body weight relative to vehicle-treated mice: 21.1%
[2]; 10 and 30 mg/kg daily oral
  food intake: without affecting food intake; also recorded: No significant differences
[3]
  liver lipid content (Oil-red-O staining): reduced lipid content
[4]; Cholesterol ester
  C20:4n6 concentration, Cholesterol ester: 72.4*** μg mL^−1
[4]; Phospholipids
  C16:1n7t concentration, Phospholipids: 1.2 µg/mL
[4]; Total lipids
  C16:1n7t concentration, Total: 3.0 µg/mL
  C20:2n6 concentration, Total: 9.9 µg/mL
  C24:0 concentration, Total: 1.9 µg/mL
[5]; Compound A-treated DIO mice
  plasma liver enzyme alanine aminotransferase (ALT): decreased
[5]; 10 mg kg^−1, 46 or 54 days
  Alanine Aminotransferase: 142.8 ± 26.6 U L^−1
  Cholesterol: 173.0 ± 11.9 mg/dL
  HDL-Cholesterol: 86.4 ± 8.0 mg/dL
  Insulin: 3.7 ± 3.2 ng/mL
  LDL-Cholesterol: 22.4 ± 2.3 mg/dL
  Non-esterified fatty acids: 0.9 ± 0.1 mEq L^−1
  Triglycerides: 77.8 ± 13.7 mg/dL
[5]; 30 mg kg^−1, 46 or 54 days
  Alanine Aminotransferase: 102.0 ± 32.4 U L^−1
  Cholesterol: 165.3 ± 15.6 mg/dL
  HDL-Cholesterol: 85.7 ± 5.5 mg/dL
  Insulin: 2.2 ± 1.3 ng/mL
  LDL-Cholesterol: 19.7 ± 2.5 mg/dL
  Non-esterified fatty acids: 0.7 ± 0.1 mEq L^−1
  Triglycerides: 63.3 ± 9.7 mg/dL
[5]; [6]
  C-reactive Protein: 43.6 ± 9.7 µg/mL
  Glucose: 170.3 ± 22.3 mg/dL
  Serum Amyloid A: 5.2 ± 1.3 µg/mL
[5]; DIO mice, 10 mg/kg daily oral
  plasma insulin decrease vs vehicle: 74.9%
[5]; [7]
  C-reactive Protein: 37.1 ± 6.5 µg/mL
  Glucose: 168.6 ± 23.2 mg/dL
  Serum Amyloid A: 4.8 ± 1.8 µg/mL
[5]; DIO mice, 30 mg/kg daily oral
  lower plasma triglycerides vs vehicle: 41.6%
  plasma insulin decrease vs vehicle: 84.7%
[5]; [8]
  plasma cholesterol: lowered; also recorded: trended lower
  plasma triglycerides: dose-dependent decreases

From patent US20260183297A1, “SELECTION OF PATIENTS FOR THE TREATMENT OF FADS1-MEDIATED DISEASES OR DISORDERS USING FADS-1 INHIBITORS” (AMGEN INC., priority 2022, published 2026)
